Results taken from patent US9309283B2, “Prodrugs of peptide epoxy ketone protease inhibitors” (Onyx Therapeutics, Inc., priority 2012, dated 2016).

How the values were obtained:
[1] = Buffer conversion rates of prodrugs to Compound B; format: physicochemical
[2] = target: i20s (Homo sapiens, UniProt P20618+P28062); experiment: Purified PI IC50, i20s; format: biochemical
[3] = Conversion of prodrugs by Human Liver S9; format: in vitro ADME
[4] = Pharmacokinetic comparison of Compound A and prodrug in mouse; format: in vivo; settings: dose 5 mg/kg
[5] = target: c20s (Homo sapiens, UniProt P20618+P28074); experiment: Purified PI IC50, c20s; format: biochemical
[6] = Conversion to drug in human plasma (%) over time; format: in vitro ADME

COC[C@H](NC(=O)c1cnc(C)s1)C(=O)N[C@@H](COC)C(=O)N[C@@H](Cc1ccccc1)C(=O)[C@](C)(O)COS(=O)(=O)CC(F)F [20-6]
Buffer pH = 7.4 % Conversion @ 1 hour [1]: 5.7%

CO/N=C(/[C@H](CC(C)C)NC(=O)[C@H](Cc1ccccc1)NC(=O)[C@H](CC(C)C)NC(=O)[C@H](CCc1ccccc1)NC(=O)CN1CCOCC1)[C@@]1(C)CO1
Purified PI IC50 Slope i20s ([2]; Table G, * = did not converge): inactive

CCOC(=O)C(=O)O[C@](C)(CI)C(=O)[C@H](Cc1ccccc1)NC(=O)[C@H](COC)NC(=O)[C@H](COC)NC(=O)c1cnc(C)s1 [20-16]
Human Liver S9 % Conversion @ 1 hour [3]: 24%

CC(C)C[C@H](NC(=O)[C@H](CCc1ccccc1)NC(=O)CN1CCOCC1)C(=O)N[C@@H](Cc1ccccc1)C(=O)N[C@@H](CC(C)C)C(=O)[C@@]1(C)CO1 [Cmpd A, (S)-4-methyl-N—((S)-1-(((S)-4-methyl-1-((R)-2-methyloxiran-2-yl)-1-oxopentan-2-yl)amino)-1-oxo-3-phenylpropan-2-yl)-2-((S)-2-(2-morpholinoacetamido)-4-phenylbutanamido)pentanamide]
[Cmpd A] ([4]; time 1 hr): 0.008 µM
[Cmpd A] ([4]; time 4 hr): BLOQ
[Cmpd A] ([4]; time 6 hr): BLOQ
[Cmpd A] ([4]; time 24 hr): BLOQ

COC[C@H](NC(=O)c1cnc(C)s1)C(=O)N[C@@H](COC)C(=O)N[C@@H](Cc1ccccc1)C(=O)[C@](C)(O)COS(=O)(=O)C1CCOCC1 [compound 22]
Buffer pH = 7.4 % Conversion @ 1 hour [1]: 9.8%

COC[C@H](NC(=O)c1cnc(C)s1)C(=O)N[C@@H](COC)C(=O)N[C@@H](Cc1ccccc1)C(=O)[C@@](C)(CI)OC=O [20-24]
Human Liver S9 % Conversion @ 1 hour [3]: 29%

COC[C@H](NC(=O)c1cnc(C)s1)C(=O)N[C@@H](COC)C(=O)N[C@@H](Cc1ccccc1)C(=O)[C@](C)(O)CI [20-1]
Buffer pH = 7.4 % Conversion @ 1 hour [1]: 24%

COC[C@H](NC(=O)c1cnc(C)s1)C(=O)N[C@@H](COC)C(=O)N[C@@H](Cc1ccccc1)C(=O)[C@@](C)(CI)OC(=O)CCCOC(C)=O [20-13]
Human Liver S9 % Conversion @ 1 hour [3]: 11%

COC[C@H](NC(=O)c1cnc(C)s1)C(=O)N[C@@H](COC)C(=O)N[C@@H](Cc1ccccc1)C(=O)[C@](C)(O)COS(=O)(=O)c1ccc(F)c(F)c1 [20-5]
Buffer pH = 7.4 % Conversion @ 1 hour [1]: 13.2%

COC[C@H](NC(=O)c1cnc(C)s1)C(=O)N[C@@H](COC)C(=O)N[C@@H](Cc1ccccc1)C(=O)[C@](C)(O)COS(=O)(=O)Cc1ccccc1 [compound 23]
Buffer pH = 7.4 % Conversion @ 1 hour [1]: 9.6%

COC[C@H](NC(=O)c1cnc(C)s1)C(=O)N[C@@H](COC)C(=O)N[C@@H](Cc1ccccc1)C(=O)[C@](C)(O)COC(=O)c1c(Cl)cccc1Cl
Purified PI IC50 Slope i20s ([2]; Table H): inactive
Purified PI IC50 60 minute point i20s ([2]; Table H): inactive
Purified PI IC50 Slope c20s ([5]; Table H): inactive
Purified PI IC50 60 minute point c20s ([5]; Table H): inactive

CC(C)C[C@H](NC(=O)[C@H](CCc1ccccc1)NC(=O)CN1CCOCC1)C(=O)N[C@@H](Cc1ccccc1)C(=O)N[C@@H](CC(C)C)C(=O)[C@](C)(O)COC(=O)c1c(Cl)cccc1Cl
Purified PI IC50 Slope c20s ([5]; Table G, * = did not converge): inactive

CCCCS(=O)(=O)OC[C@@](C)(O)C(=O)[C@H](Cc1ccccc1)NC(=O)[C@H](COC)NC(=O)[C@H](COC)NC(=O)c1cnc(C)s1 [20-7]
Buffer pH = 7.4 % Conversion @ 1 hour [1]: 4.2%

COC[C@H](NC(=O)c1cnc(C)s1)C(=O)N[C@@H](COC)C(=O)N[C@@H](Cc1ccccc1)/C(=N/OC)[C@@]1(C)CO1
Purified PI IC50 Slope i20s ([2]; Table H): inactive
Purified PI IC50 60 minute point i20s ([2]; Table H): inactive
Purified PI IC50 Slope c20s ([5]; Table H): inactive

COC[C@H](NC(=O)c1cnc(C)s1)C(=O)N[C@@H](COC)C(=O)N[C@@H](Cc1ccccc1)C(=O)[C@](C)(O)COS(=O)(=O)c1ccc(C)cc1 [compound 21]
Buffer pH = 7.4 % Conversion @ 1 hour [1]: 20.3%

COC[C@H](NC(=O)c1cnc(C)s1)C(=O)N[C@@H](COC)C(=O)N[C@@H](Cc1ccccc1)C(=O)[C@](C)(O)COS(=O)(=O)Cc1ccccc1 [drawing 371]
Purified PI IC50 Slope i20s ([2]; Table H): inactive

COC[C@H](NC(=O)c1cnc(C)s1)C(=O)N[C@@H](COC)C(=O)N[C@@H](Cc1ccccc1)C(=O)[C@](C)(O)CBr [20-3]
Buffer pH = 7.4 % Conversion @ 1 hour [1]: 23%

CC(C)C[C@H](NC(=O)[C@H](CCc1ccccc1)NC(=O)CN1CCOCC1)C(=O)N[C@@H](Cc1ccccc1)C(=O)N[C@@H](CC(C)C)/C(=N/OCC(=O)O)[C@@]1(C)CO1
Purified PI IC50 Slope i20s ([2]; Table G, * = did not converge): inactive
Purified PI IC50 Slope c20s ([5]; Table G, * = did not converge): inactive

COC[C@H](NC(=O)c1cnc(C)s1)C(=O)N[C@@H](COC)C(=O)N[C@@H](Cc1ccccc1)C(=O)[C@@](C)(CI)OC(=O)Oc1ccccc1 [20-26]
Human Liver S9 % Conversion @ 1 hour [3]: 32%

COC[C@H](NC(=O)c1cnc(C)s1)C(=O)N[C@@H](COC)C(=O)N[C@@H](Cc1ccccc1)C(=O)[C@@](C)(CI)OC(=O)CCCCSC(C)=O [20-10]
Human Liver S9 % Conversion @ 1 hour [3]: 3%

CCOC(=O)O[C@](C)(CI)C(=O)[C@H](Cc1ccccc1)NC(=O)[C@H](COC)NC(=O)[C@H](COC)NC(=O)c1cnc(C)s1 [20-25]
Human Liver S9 % Conversion @ 1 hour [3]: 14%

COC[C@H](NC(=O)c1cnc(C)s1)C(=O)N[C@@H](COC)C(=O)N[C@@H](Cc1ccccc1)C(=O)[C@](C)(O)COS(=O)(=O)CC(F)(F)F [20-4]
Buffer pH = 7.4 % Conversion @ 1 hour [1]: 21.2%

COCCOCCOCCOCCOCCOCCOCCOCCn1cc(CNC(=O)c2cccc(S(=O)(=O)OCC(C)(O)C(=O)[C@H](CC(C)C)NC(=O)[C@H](Cc3ccccc3)NC(=O)[C@H](CC(C)C)NC(=O)[C@H](CCc3ccccc3)NC(=O)CN3CCOCC3)c2)nn1 (stereo partly drawn)
Conversion to drug in Human Plasma ([6]; 2 min): 7%
Conversion to drug in Human Plasma ([6]; 30 min): 63%
Conversion to drug in Human Plasma ([6]; 1 hr): 100%
Conversion to drug in Human Plasma ([6]; 2 hr): 95%
Conversion to drug in Human Plasma ([6]; 4 hr): 80%

COC[C@H](NC(=O)c1cnc(C)s1)C(=O)N[C@@H](COC)C(=O)N[C@@H](Cc1ccccc1)C(=O)[C@@](C)(CI)OC(=O)CCl [20-23]
Human Liver S9 % Conversion @ 1 hour [3]: 22%

CCOC(=O)CCC(=O)O[C@](C)(CI)C(=O)[C@H](Cc1ccccc1)NC(=O)[C@H](COC)NC(=O)[C@H](COC)NC(=O)c1cnc(C)s1 [20-17]
Human Liver S9 % Conversion @ 1 hour [3]: 1%

COC[C@H](NC(=O)c1cnc(C)s1)C(=O)N[C@@H](COC)C(=O)N[C@@H](Cc1ccccc1)C(=O)[C@](C)(O)COC(C)=O
Purified PI IC50 Slope i20s ([2]; Table H): inactive
Purified PI IC50 60 minute point i20s ([2]; Table H): inactive
Purified PI IC50 Slope c20s ([5]; Table H): inactive
Purified PI IC50 60 minute point c20s ([5]; Table H): inactive

COC[C@H](NC(=O)c1cnc(C)s1)C(=O)N[C@@H](COC)C(=O)N[C@@H](Cc1ccccc1)C(=O)[C@@](C)(CI)OC(=O)COc1ccccc1 [20-19]
Human Liver S9 % Conversion @ 1 hour [3]: 7%

COCCOCCOCCOCCOCCOCCOCCOCCn1cc(COCCCS(=O)(=O)OCC(C)(O)C(=O)[C@H](CC(C)C)NC(=O)[C@H](Cc2ccccc2)NC(=O)[C@H](CC(C)C)NC(=O)[C@H](CCc2ccccc2)NC(=O)CN2CCOCC2)nn1 (stereo partly drawn)
Conversion to drug in Human Plasma ([6]; 2 min): 2%
Conversion to drug in Human Plasma ([6]; 30 min): 18%
Conversion to drug in Human Plasma ([6]; 1 hr): 58%
Conversion to drug in Human Plasma ([6]; 2 hr): 90%
Conversion to drug in Human Plasma ([6]; 4 hr): 80%

CCCCCCCCS(=O)(=O)OC[C@@](C)(O)C(=O)[C@H](Cc1ccccc1)NC(=O)[C@H](COC)NC(=O)[C@H](COC)NC(=O)c1cnc(C)s1 [20-8]
Buffer pH = 7.4 % Conversion @ 1 hour [1]: 10.8%

COC[C@H](NC(=O)c1cnc(C)s1)C(=O)N[C@@H](COC)C(=O)N[C@@H](Cc1ccccc1)C(=O)[C@](C)(O)CCl [20-2]
Buffer pH = 7.4 % Conversion @ 1 hour [1]: 0%

COC[C@H](NC(=O)c1cnc(C)s1)C(=O)N[C@@H](COC)C(=O)N[C@@H](Cc1ccccc1)C(=O)[C@@](C)(CI)OC(=O)OCc1oc(=O)oc1C [20-15]
Human Liver S9 % Conversion @ 1 hour [3]: 30%

COC[C@H](NC(=O)c1cnc(C)s1)C(=O)N[C@@H](COC)C(=O)N[C@@H](Cc1ccccc1)C(=O)[C@@](C)(CI)OC(=O)OCc1ccc(OC(C)=O)cc1 [20-22]
Human Liver S9 % Conversion @ 1 hour [3]: 28%

COCCOCCOCCOCCC(=O)N/N=C(/[C@H](CC(C)C)NC(=O)[C@H](Cc1ccccc1)NC(=O)[C@H](CC(C)C)NC(=O)[C@H](CCc1ccccc1)NC(=O)CN1CCOCC1)[C@@]1(C)CO1
Purified PI IC50 Slope c20s ([5]; Table G, * = did not converge): inactive

COC[C@H](NC(=O)c1cnc(C)s1)C(=O)N[C@@H](COC)C(=O)N[C@@H](Cc1ccccc1)C(=O)[C@](C)(O)COP(=O)(c1ccccc1)c1ccccc1
Purified PI IC50 Slope i20s ([2]; Table H): inactive
Purified PI IC50 60 minute point i20s ([2]; Table H): inactive
Purified PI IC50 Slope c20s ([5]; Table H): inactive
Purified PI IC50 60 minute point c20s ([5]; Table H): inactive
